Values quoted from earlier work as cited in patent publication US9199026B2, “Modular extracorporeal systems and methods for treating blood-borne diseases” (SOMERSET GROUP ENTERPRISES, INC., priority 2011, dated 2015).
Like-named read-outs stand apart in the source and are kept apart here. One block for each compound: values may come before it.

Tests used:
[1] = not given; remark: listed apart in the source
[2] = not given; remark: listed apart in the source
bacteria = conditions: for Spectrum: first line of the cell pair 'Spectrum, activity'; for activity (bactericidal / static): second line of the cell pair 'Spectrum

Compound: CC1(C)S[C@@H]2[C@H](NC(=O)[C@H](N)c3ccc(O)cc3)C(=O)N2[C@H]1C(=O)O [Amoxicillin]
- Percent removed By hemodialysis (in vivo): 30%

Compound: CO/N=C(\C(=O)N[C@@H]1C(=O)N2C(C(=O)O)=C(CSc3nnnn3C)CS[C@H]12)c1csc(N)n1 [Cefmenoxime]
- Percent removed By CAPD ([1]; in vivo): Negligible (<10%)
- Percent removed By hemodialysis (in vivo): 16-51%

Compound: CO/N=C(\C(=O)N[C@@H]1C(=O)N2C(C(=O)O)=C(CSc3nc(C)c(CC(=O)O)s3)CS[C@H]12)c1csc(N)n1 [Cefodizime]
- Percent removed By CAPD ([1]; in vivo): Negligible (15%)
- Percent removed By hemodialysis (in vivo): 50%

Compound: Cc1nnc(SCC2=C(C(=O)O)N3C(=O)[C@@H](NC(=O)Cn4cnnn4)[C@H]3SC2)s1 [Cefazolin]
- Percent removed By CAPD ([1]; CAPD): 20%
- Percent removed By hemodialysis (hemodialysis): 50%

Compound: CC[C@H]1OC(=O)[C@H](C)[C@@H](O[C@H]2C[C@@](C)(OC)[C@@H](O)[C@H](C)O2)[C@H](C)[C@@H](O[C@@H]2O[C@H](C)C[C@H](N(C)C)[C@H]2O)[C@](C)(O)C[C@@H](C)CN(C)[C@H](C)[C@@H](O)[C@]1(C)O [Azithromycin]
- pKa ([2]; no group stated): 8.1

Compound: CO/N=C(\C(=O)N[C@@H]1C(=O)N2C(C(=O)[O-])=C(C[N+]3(C)CCCC3)CS[C@H]12)c1csc(N)n1 [Cefipime]
- Percent removed By CAPD ([1]; CAPD): 26%
- Percent removed By hemodialysis (hemodialysis): 40-70%

Compound: CC1(C)S[C@@H]2[C@H](/N=C/N3CCCCCC3)C(=O)N2[C@H]1C(=O)O [Amdinocillin]
- Percent removed By CAPD ([1]; in vivo): Negligible (<4%)
- Percent removed By hemodialysis (in vivo): 32-70%

Compound: CO[C@@]1(NC(=O)Cc2cccs2)C(=O)N2C(C(=O)O)=C(COC(N)=O)CS[C@@H]21 [Cefoxitin]
- Percent removed By CAPD ([1]; in vivo): Negligible
- Percent removed By hemodialysis (in vivo): 50%

Compound: N[C@@H]1[C@H]2CN(c3nc4c(cc3F)c(=O)c(C(=O)O)cn4-c3ccc(F)cc3F)C[C@@H]12 [Trovafloxacin]
- Spectrum (bacteria): Broad,
- activity (bactericidal / static) (bacteria): bactericidal

Compound: Colistin
- pKa ([2]; no group stated): 12.1
- Spectrum (bacteria): Gram negative,
- activity (bactericidal / static) (bacteria): bactericidal

Compound: Polymixin B
- Spectrum (bacteria): G−,
- activity (bactericidal / static) (bacteria): bactericidal

Compound: CO[C@@]1(NC(=O)CSCC#N)C(=O)N2C(C(=O)O)=C(CSc3nnnn3C)CS[C@@H]21 [Cefmetazole]
- Percent removed By hemodialysis (in vivo): 60%

Compound: CC(=O)OCC1=C(C(=O)O)N2C(=O)[C@@H](NC(=O)CSc3ccncc3)[C@H]2SC1 [Cephapirin]
- Percent removed By hemodialysis (hemodialysis): 20%

Compound: CN(C)c1cc(NC(=O)CNC(C)(C)C)c(O)c2c1C[C@H]1C[C@H]3[C@H](N(C)C)C(O)=C(C(N)=O)C(=O)[C@@]3(O)C(O)=C1C2=O [Tigecycline]
- pKa ([2]; no group stated): 4.4
- Spectrum (bacteria): Broad,
- activity (bactericidal / static) (bacteria): static

Compound: CC1(C)S[C@@H]2[C@H](NC(=O)Cc3ccccc3)C(=O)N2[C@H]1C(=O)O [Penicillin G]
- pKa ([2]; no group stated): 2.8

Compound: NCC[C@H](O)C(=O)N[C@@H]1C[C@H](N)[C@@H](O[C@H]2O[C@H](CN)[C@@H](O)[C@H](O)[C@H]2O)[C@H](O)[C@H]1O[C@H]1O[C@H](CO)[C@@H](O)[C@H](N)[C@H]1O [Amikacin]
- pKa ([2]; no group stated): 12.7
- Spectrum (bacteria): Gram negative,
- activity (bactericidal / static) (bacteria): bactericidal

Compound: C[C@@H](O)[C@H]1C(=O)N2C(C(=O)[O-])=C(SC3Cn4cnc[n+]4C3)[C@H](C)[C@H]12 (stereo partly shown) [Biapenem]
- Percent removed By hemodialysis (in vivo): 90%

Compound: N[C@@H](C(=O)N[C@@H]1C(=O)N2C(C(=O)O)=C(Cl)CS[C@H]12)c1ccccc1 [Cefaclor]
- Percent removed By hemodialysis (in vivo): 33%

Compound: CO/N=C(\C(=O)N[C@@H]1C(=O)N2C(C(=O)[O-])=C(C[n+]3cccc4c3CCC4)CS[C@H]12)c1csc(N)n1 [Cefpirome]
- Percent removed By CAPD ([1]; in vivo): Negligible (12%)
- Percent removed By hemodialysis (in vivo): 32-48%

Compound: Nc1ccc(C(=O)O)c(O)c1 [Para-aminosalicylic Acid]
- Percent removed By hemodialysis (hemodialysis): 50%

Compound: CCCCCCCCCC(=O)N[C@@H](Cc1c[nH]c2ccccc12)C(=O)N[C@H](CC(N)=O)C(=O)N[C@@H](CC(=O)O)C(=O)N[C@@H]1C(=O)NCC(=O)N[C@@H](CCCN)C(=O)N[C@@H](CC(=O)O)C(=O)N[C@H](C)C(=O)N[C@@H](CC(=O)O)C(=O)NCC(=O)N[C@H](CO)C(=O)N[C@@H]([C@H](C)CC(=O)O)C(=O)N[C@@H](CC(=O)c2ccccc2N)C(=O)O[C@@H]1C [Daptomycin]
- Spectrum (bacteria): Gram positive,
- activity (bactericidal / static) (bacteria): bactericidal

Compound: CC1(C)S[C@@H]2[C@H](NC(=O)C(C(=O)O)c3ccccc3)C(=O)N2[C@H]1C(=O)O (stereo partly shown) [Carbenicillin]
- Percent removed By hemodialysis (in vivo): 50%

Compound: Penicillin
- Percent removed By hemodialysis (hemodialysis): 50%

Compound: NCc1ccccc1CC(=O)N[C@@H]1C(=O)N2C(C(=O)O)=C(CSc3nnnn3CC(=O)O)CS[C@H]12 [Ceforanide]
- Percent removed By CAPD ([1]; in vivo): Negligible
- Percent removed By hemodialysis (in vivo): 20-50%

Compound: Gentamycin
- Spectrum (bacteria): Gram negative,
- activity (bactericidal / static) (bacteria): bactericidal

Compound: COCC1=C(C(=O)O)N2C(=O)[C@@H](NC(=O)/C(=N\OC)c3csc(N)n3)[C@H]2SC1 [Cefpodoxime]
- Percent removed By hemodialysis (in vivo): 50%

Compound: Nc1nc(NC2CC2)c2ncn([C@H]3C=C[C@@H](CO)C3)c2n1 [Abacavir]
- Percent removed By hemodialysis (in vivo): 24%

Compound: NC[C@H]1O[C@H](O[C@H]2[C@H](O)[C@@H](O[C@H]3O[C@H](CO)[C@@H](O)[C@H](N)[C@H]3O)[C@H](N)C[C@@H]2N)[C@H](N)C[C@@H]1O [Tobramycin]
- Spectrum (bacteria): Gram negative,
- activity (bactericidal / static) (bacteria): bactericidal

Compound: O=C(O)c1cn(C2CC2)c2cc(N3CCNCC3)c(F)cc2c1=O [Ciprofloxalin]
- activity (bactericidal / static) (bacteria): bactericidal

Further lines, results first:

- Percent removed By hemodialysis (hemodialysis): 60%
Compound: NC(=O)c1cc[n+](CC2=C(C(=O)O)N3C(=O)[C@@H](NC(=O)[C@@H](c4ccccc4)S(=O)(=O)[O-])[C@H]3SC2)cc1 [Cefsulodin]

- Percent removed By hemodialysis (in vivo): 50%
Compound: CN[C@@H]1[C@H](O)[C@H](NC)[C@H]2O[C@@]3(O)C(=O)C[C@@H](C)O[C@H]3O[C@@H]2[C@H]1O [Spectinomycin]

- Percent removed By hemodialysis (in vivo): 50%
Compound: CC(=O)OCC1=C(C(=O)O)N2C(=O)[C@@H](NC(=O)Cc3cccs3)[C@H]2SC1 [Cephalothin]

- Percent removed By CAPD ([1]; in vivo): 20%
Compound: CO/N=C(\C(=O)N[C@@H]1C(=O)N2C(C(=O)O)=C(COC(N)=O)CS[C@H]12)c1ccco1 [Cefuroxime]

- Percent removed By hemodialysis (in vivo): 30-40%
Compound: CN(C)CCn1nnnc1SCC1=C(C(=O)O)N2C(=O)[C@@H](NC(=O)Cc3csc(N)n3)[C@H]2SC1 [Defotiam]

- Percent removed By CAPD ([1]; in vivo): Negligible (16%)
- Percent removed By hemodialysis (in vivo): 50%
Compound: CO/N=C(\C(=O)N[C@@H]1C(=O)N2C(C(=O)O)=CCS[C@H]12)c1csc(N)n1 [Ceftizoxime]

- Percent removed By CAPD ([1]; in vivo): Negligible (15-20%)
- Percent removed By hemodialysis (in vivo): 30-50%
Compound: CO[C@@]1(NC(=O)C(C(=O)O)c2ccc(O)cc2)C(=O)N2C(C(=O)O)=C(CSc3nnnn3C)CO[C@@H]21 (stereo partly shown) [Moxalactam]

- Percent removed By CAPD ([1]; in vivo): Negligible (7%)
- Percent removed By hemodialysis (in vivo): 50%
Compound: COc1cc(Cc2cnc(N)nc2N)cc(OC)c1OC [Trimethoprim]

- Percent removed By CAPD ([1]; CAPD): Negligible
- Percent removed By hemodialysis (hemodialysis): 50%
Compound: Nc1ccn(C[C@@H](CO)OCP(=O)(O)O)c(=O)n1 [Cidofovir]

- pKa ([2]; (NH2)): 3.2
Compound: CO/N=C(\C(=O)N[C@@H]1C(=O)N2C(C(=O)O)=C(CSc3nc(=O)c(=O)[nH]n3C)CS[C@H]12)c1csc(N)n1 [Ceftriaxone sodium]

- Percent removed By hemodialysis (hemodialysis): 33%
Compound: CC(=O)NC[C@H]1CN(c2ccc(N3CCOCC3)c(F)c2)C(=O)O1 [Linezolid]

- Percent removed By CAPD ([1]; in vivo): 30%
- Percent removed By hemodialysis (in vivo): 50-75%
Compound: CC1=C(C(=O)O)N2C(=O)[C@@H](NC(=O)[C@H](N)c3ccccc3)[C@H]2SC1 [Cephalexin]

- Percent removed By hemodialysis (in vivo): 55%
Compound: CC=CC1=C(C(=O)O)N2C(=O)[C@@H](NC(=O)[C@H](N)c3ccc(O)cc3)[C@H]2SC1 [Cefprozil]

- pKa ([2]; no group stated): 2.5
Compound: CO/N=C(\C(=O)N[C@@H]1C(=O)N2C(C(=O)O)=C(COC(N)=O)CS[C@H]12)c1ccco1 [Cefuroxime sodium]

- Percent removed By CAPD ([1]; in vivo): Negligible
- Percent removed By hemodialysis (in vivo): 80-90%
Compound: C[C@@H](O)[C@H]1C(=O)N2C(C(=O)O)=C(SCCN=CN)C[C@H]12 [Imipenem]

- Percent removed By hemodialysis (in vivo): 50%
Compound: CC(=O)OCC1=C(C(=O)O)N2C(=O)[C@@H](NC(=O)CC#N)[C@H]2SC1 [Cephacetrile]

- Percent removed By CAPD ([1]; CAPD): Negligible (6%)
- Percent removed By hemodialysis (hemodialysis): 50%
Compound: CO[C@@]1(NC(=O)C(C(=O)O)c2ccsc2)C(=O)N2[C@@H](C(=O)O)C(C)(C)S[C@@H]21 (stereo partly shown) [Temocillin]

- Percent removed By hemodialysis (in vivo): 75%
Compound: NNC(=O)c1ccncc1 [Isoniazid]

- Percent removed By CAPD ([1]; in vivo): 24%
- Percent removed By hemodialysis (in vivo): 20-25%
Compound: CC1(C)S[C@@H]2[C@H](NC(=O)[C@H](NC(=O)N3CCN(S(C)(=O)=O)C3=O)c3ccccc3)C(=O)N2[C@H]1C(=O)O [Mezlocillin]

- Percent removed By hemodialysis (in vivo): 39%
Compound: Nc1nc(/C(=C/CC(=O)O)C(=O)N[C@@H]2C(=O)N3C(C(=O)O)=CCS[C@H]23)cs1 [Ceftibuten]

- Percent removed By CAPD ([1]; in vivo): Negligible
- Percent removed By hemodialysis (in vivo): 50%
Compound: CC(C)(O/N=C(\C(=O)N[C@@H]1C(=O)N2C(C(=O)[O-])=C(C[n+]3ccccc3)CS[C@H]12)c1csc(N)n1)C(=O)O [Ceftazidime]

- Percent removed By CAPD ([1]; in vivo): Negligible (4.5%)
- Percent removed By hemodialysis (in vivo): 40%
Compound: CO/N=C(\C(=O)N[C@@H]1C(=O)N2C(C(=O)O)=C(CSc3nc(=O)c(=O)[nH]n3C)CS[C@H]12)c1csc(N)n1 [Ceftriaxone]

- Percent removed By hemodialysis (in vivo): 50-70%
Compound: C[C@@H](O)[C@H]1C(=O)N2C(C(=O)O)=C(S[C@@H]3CN[C@H](C(=O)N(C)C)C3)[C@H](C)[C@H]12 [Meropenem]

- Percent removed By hemodialysis (in vivo): 50%
Compound: COC1=C(C(=O)O)N2C(=O)[C@@H](NC(=O)[C@H](N)C3=CCC=CC3)[C@H]2SC1 [Cefroxadine]
